# Tests used:
# [1] = tested on: isolated canine neutrophils; test: MPO secretion from isolated canine neutrophils stimulated with PMA + 8-Br-cGMP (FIG. 6, 10, 11); type: cell-based; details: FIG. 11; 8-Br-cGMP alone, until co-stimulation with PMA
# From the text: The invention also relates to a new method for blocking any cellular exocytotic secretory process, especially those releasing inflammatory mediators from granules contained within inflammatory cells, whose stimulatory pathways involve the protein kinase C (PKC) substrate MARCKS protein and release of contents from membrane-bound vesicles. Specifically, the inventors have shown that stimulated release of the inflammatory mediator myloperoxidase from human (FIG. 6) or canine (FIG. 7) neutrophils can be blocked in a concentration-dependent manner by the MANS peptide. […] 10 or 100 μM of a control peptide (RNS) has no effect on MPO secretion. In FIG. 7, isolated neutrophils were stimulated to secrete myloperoxidase (MPO) with 100 nM PMA and 10 μM 8-Br-cGMP. […] 10 or 100 μM of a control peptide (RNS) has no effect on MPO secretion. Thus, the peptide may be used therapeutically to block the release of mediators of inflammation secreted from infiltrating inflammatory cells in any tissues. Many of these released mediators are responsible for the extensive tissue damage observed in a variety of chronic inflammatory diseases (i.e., respiratory diseases such as asthma, chronic bronchitis and COPD, inflammatory bowel diseases including ulcerative colitis and Crohn's disease, autoimmune diseases, skin diseases such as rosacea, eczema; and severe acne, arthritic and pain syndromes such as rheumatoid arthritis and fibromyalgia). This invention may be useful for treating diseases such as arthritis, chronic bronchitis, COPD and cystic fibrosis. This invention is accordingly useful for the treatment in both human and animal diseases, especially those affecting equines, canines, felines, and other household pets.
# FIGS. 8-12 show MPO secretion for both humans and canines. In all of these experiments, isolated neutrophils were stimulated with LPS at a concentration of 1×10^−6 M for 10 minutes at 37° C. prior to adding the stimuli as indicated in the figures. The LPS primes the cells so they can respond to a secretagogue.
# Isolation of PMNs from canine blood—The steps involved in isolating PMN include collecting 10 ml ACD anticoagulated blood. Then layering 5 ml on 3.5 ml PMN isolation media while ensuring that the PMN isolation media (IM) was at room temperature (RI). Next, the blood was centrifuged at room temperature for 30′, 550×g at 1700 RPMs. The low lower white band was transferred into 15 ml conical centrifuge tube (CCFT). Next, 2V HESS with 10% fetal bovine serum […] was added and centrifuged at room temperature for 10′, 400×g at 1400 RPMs. The pellet was then resuspended in 5 ml 1-1ESS with PBS. The cell suspension was added to 50 ml CCFT containing 20 ml of ice cold 0.88% NH4Cl and inverted two to three times. The resulting product was centrifuged for 10′, 800×g at 2000 RPMs, then aspirated and resuspended in 5 ml HBSS with FBS. The prep was examined by counting and cytospin and preferably for whole blood, the cell number should be between 10^9-10^11 cells and for PMNs, cell number should be between 2-4×10^7 cells. See generally, Wang et al., J. Immunol., “Neutrophil-induced changes in the biomechanical properties of endothelial cells: roles of ICAM-1 and reactive oxygen species,” 6487-94 (2000).
# MPO Colorimetric Enzyme Assay—Samples were assayed for MPO activity in 96 well round bottom microtiter plates using a sandwich ELISA kit (R & D Systems, Minneapolis, Minn.). […]
# [2] = tested on: isolated human neutrophils; test: MPO secretion from isolated human neutrophils stimulated with PMA + 8-Br-cGMP (FIG. 7, 8, 9); type: cell-based; details: FIG. 9; 8-Br-cGMP alone, until co-stimulation with PMA
# [3] = tested on: MARCKS phosphorylation in NHBE cells; test: MARCKS phosphorylation in NHBE cells, radiolabeled immunoprecipitation assay; type: cell-based, human
# Description: Radiolabeled Immunoprecipitation Assay—When labeling with [^32P]phosphate, cells were preincubated for 2 h in phosphate-free Dulbecco's modified Eagle's medium containing 0.2% bovine serum albumin and then labeled with 0.1 mCi/ml [^32P]orthophosphate (9000 Ci/mmol, PerkinElmer Life Sciences) for 2 h. For labeling with [^3H]myristic acid or 3H-amino acids, cells were incubated overnight in medium containing 50 μCi/ml [^3H]myristic acid (49 Ci/mmol, PerkinElmer Life Sciences) or 0.2 mCi/ml [^3H]leucine (159 Ci/mmol, PerkinElmer Life Sciences) plus 0.4 mCi/ml [^3H]proline (100 Ci/mmol, PerkinElmer Life Sciences). Following labeling, cells were exposed to stimulatory reagents for 5 min. When an inhibitor was used, cells were preincubated with the inhibitor for 15 min prior to stimulation. At the end of the treatments, cells were lysed in a buffer containing 50 mM Tris-HCl (pH 7.5), 150 mM NaCl, 1 mM EDTA, 10% glycerol, 1% Nonidet P-40, 1 mM phenylmethylsulfonyl fluoride, 1 mM benzamidine, 10 μg/ml pepstatin A, and 10 μg/ml leupeptin. Trichloroacetic acid precipitation and scintillation counting may determine the radiolabeling efficiency in each culture. Immunoprecipitation of MARCKS protein was carried out according to the method of Spizz and Blackshear using cell lysates containing equal counts/min. Spizz et al., J. Biol. Chem. 271, 553-562 (1996). Precipitated proteins were resolved by 8% SDS-polyacrylamide gel electrophoresis and visualized by autoradiography. Anti-human MARCKS antibody (2F12) and nonimmune control antibody (6F6) were used in this assay.
# To assess MARCKS or MARCKS-associated protein complexes in different subcellular fractions, radiolabeled and treated cells were scraped into a homogenization buffer (50 mM Tris-HCl (pH 7.5), 10 mM NaCl, 1 mM EDTA, 1 mM phenylmethylsulfonyl fluoride, 1 mM benzamidine, 10 μg/ml pepstatin A, 10 μg/ml leupeptin) and then disrupted by nitrogen cavitation (800 pounds/square inch for 20 min at 4° C.). Cell lysates were centrifuged at 600×g for 10 min at 4° C. to remove nuclei and unbroken cells. Post-nuclear supernatants were separated into membrane and cytosol fractions by ultracentrifugation at 400,000×g for 30 min at 4° C. The membrane pellet was solubilized in the lysis buffer by sonication. Immunoprecipitation was then carried out as described above.
# [4] = tested on: PP1; test: Protein phosphatase activity assay in NHBE cell lysates, PP1; type: cell-based, human; details: NHBE cells after 8-Br-cGMP
# Description: (§1) Protein Phosphatase Activity Assay—PP1 and PP2A activities were measured using a protein phosphatase assay system (Life Technologies, Inc.) as known in the art with slight modification. Huang et al., Adv. Exp. Med Biol. 396, 209-215 (1996). Briefly, NHBE cells were treated with 8-Br-cGMP or medium alone for 5 min. Cells were then scraped into a lysis buffer (50 mM Tris-HCl (pH 7.4), 0.1% β-mecaptoethanol, 0.1 mM EDTA, 1 mM benaamidine, 10 μg/ml pepstatin A, 10 μg/ml leupeptin) and disrupted by sonication for 20 s at 4° C. Cell lysates were centrifuged and the supernatants saved for phosphatase activity assay. The assay was performed using ^32P-labeled phosphorylase A as a substrate. Released ^32Pi was counted by scintillation. The protein concentration of each sample was determined by the Bradford assay. PP2A activity was expressed as the sample total phosphatase activity minus the activity remaining in the presence of 1 nM okadaic acid. PP1 activity was expressed as the difference between the activities remaining in the presence of 1 nM and 1 μM okadaic acid, respectively. Protein phosphatase activities were reported as nmol of Pi released per min/mg total protein.
# [5] = tested on: PP2A; test: Protein phosphatase activity assay in NHBE cell lysates, PP2A; type: cell-based, human
# Description: as §1
# [6] = molecular target: PP2A (Homo sapiens, UniProt P67775); details: inhibitor of PP2A; cited from earlier work
# [7] = tested on: NHBE cells; test: Mucin secretion from NHBE cells, ELISA; type: cell-based, human; details: FIG. 3; NHBE cells preincubated 15 min; okadaic acid 500 nM, fostriecin indicated concentrations
# Description: It is believed that PKG acts to dephosphorylate MARCKS via activation of a protein phosphatase. […] NHBE cells were preincubated with the indicated concentration of fostriecin, okadaic acid (500 nM), or medium alone for 15 min and then stimulated with PMA (100 nM)+8-Br-cGMP (1 μM) for 15 min or with UTP (100 μM) for 2 h. Secreted mucin was measured by ELISA. […] Thus, dephosphorylation of MARCKS by a PKG-activated PP2A appears to be an essential component of the signaling pathway leading to mucin granule exocytosis.
# MARCKS-related Peptides—Both the myristoylated N-terminal sequence (MANS) and the random N-terminal sequence (RNS) peptides were synthesized at Genemed Synthesis, Inc. (San Francisco, Calif.), then purified by high pressure liquid chromatography (>95% pure), and confirmed by mass spectroscopy with each showing one single peak with an appropriate molecular mass. The MANS peptide consisted of sequence identical to the first 24 amino acids of MARCKS, i.e. the myristoylated N-terminal region that mediates MARCKS insertion into membranes, MA-[…] […]
# PP2A (Homo sapiens, UniProt P67775), sequence (P67775 whole entry): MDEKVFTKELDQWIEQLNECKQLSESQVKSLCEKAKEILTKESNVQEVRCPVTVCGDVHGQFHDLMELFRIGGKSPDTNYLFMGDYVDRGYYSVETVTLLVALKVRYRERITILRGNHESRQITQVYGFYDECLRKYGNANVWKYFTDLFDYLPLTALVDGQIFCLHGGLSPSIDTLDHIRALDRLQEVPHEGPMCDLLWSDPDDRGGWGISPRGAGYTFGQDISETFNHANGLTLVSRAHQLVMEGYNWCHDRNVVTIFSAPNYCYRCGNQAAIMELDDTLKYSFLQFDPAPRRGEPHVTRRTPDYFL
molecule,measurement,setting,value
Nc1nc2c(nc(Br)n2[C@@H]2O[C@@H]3COP(=O)(O)O[C@H]3[C@H]2O)c(=O)[nH]1 [8-Br-cGMP],MPO secretion from LPS-stimulated canine neutrophils,[1],little effect
same,MPO secretion from LPS-stimulated human neutrophils,[2],little effect
same,effect on MARCKS phosphorylation induced by PMA,"[3]; 1 μM 8-Br-cGMP, 100 nM PMA",reversed
same,PP1 activity,[4],remained unchanged
same,PP2A activity,"[5]; NHBE cells after 8-Br-cGMP, from 0.1",0.3 nmol/min/mg proteins
same,increase of PP2A activity,"[5]; NHBE cells, 8-Br-cGMP as low as 0.1 μM, p<0.01",approximately 3 fold
C[C@@](O)(/C=C/[C@H]1CC=CC(=O)O1)[C@@H](C[C@@H](O)\C=C/C=C\C=C\CO)OP(=O)(O)O [fostriecin],IC50,[6],3.2 nM
same,effect on PKG-induced MARCKS dephosphorylation,[3]; fostriecin 1-500 nM,inhibited PKG-induced MARCKS dephosphorylation in a concentration-dependent manner
same,mucin secretion induced by PMA+8-Br-cGMP or UTP,[7],attenuated mucin secretion
C=C1[C@@H](O)[C@@H]2O[C@]3(CC[C@H](/C=C/[C@@H](C)[C@@H]4CC(C)=C[C@@]5(O[C@H](C[C@@](C)(O)C(=O)O)CC[C@H]5O)O4)O3)CC[C@H]2O[C@@H]1[C@@H](O)C[C@H](C)[C@H]1O[C@@]2(CCCCO2)CC[C@H]1C [okadaic acid],effect on PKG-induced MARCKS dephosphorylation,[3]; 500 nM okadaic acid,blocked
same,mucin secretion induced by PMA+8-Br-cGMP or UTP,[7],attenuated mucin secretion
calphostin C,effect on PMA-induced MARCKS phosphorylation,[3]; 500 nM calphostin C + 100 nM PMA,attenuated
